Assay results from US20070249582A1, “Method of Treating Substance Abuse with Quetiapine” (ASTRAZENECA AB, priority 2001, published 2007).

Test system: outpatients with bipolar disorder and cocaine dependence
[1] = baseline to exit, all evaluable patients
[2] = baseline to week 12, LOCF, p<0.003

## OCCOCCN1CCN(C2=Nc3ccccc3Sc3ccccc32)CC1 [Quetiapine, 11-(4-[2-(2-hydroxyethoxy)ethyl]-1-piperazinyl)dibenzo[b,f][1.4]-thiazepine]
8 completers, baseline, past week
  Mean amount spent on drugs at baseline: 80.8±105.4 $
8 completers, week 12, past week
  Mean amount spent on drugs at exit: 10.0±17.7 $
8 subjects who completed all 12 weeks, p=0.043
  Reduction in amount spent on drugs: 87%
[1]
  Dollar amount spent on drugs: did not decrease significantly
  Percent of positive urine samples: did not decrease significantly
[2]
  Brief Psychiatric Rating Scale (BPRS) score: improved significantly
  Young Mania Rating Scale (YMRS) score: improved significantly
Baseline to week 12, LOCF, p<0.003, mean maximum dose 312.5±95.6 mg/day
  Hamilton Depression Scale (HDRS) score: improved significantly
Baseline to week 12, p<0.05
  Cravings as measured by the cocaine craving questionnaire (CCQ): significantly decreased
In vivo
  Tolerability: well tolerated
  Withdrawals because of side effects: no subjects withdrawing because of side effects
